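The compound was tested at five concentrations on cells cultured in 96-well plates, with a 48-hour exposure period. Here, GI50 denotes the concentration required for 50% inhibition of growth.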 Calls of active or inactive are those of the source. Cut-off read from the data, not from the text of the source: active = GI50 up to about 1.1 µM and inactive = higher.
Key:
Experiment in all cases: DTP human tumour cell line panel, 48 h
786-0 = tested on: 786-0
A498 = tested on: A498
A549 = tested on: A549
ACHN = tested on: ACHN
BT-549 = tested on: BT-549
CAKI-1 = tested on: CAKI-1
CCRF-CEM = tested on: CCRF-CEM
COLO 205 = tested on: COLO 205
DU-145 = tested on: DU-145
EKVX = tested on: EKVX
HCC 2998 = tested on: HCC 2998
HCT-116 = tested on: HCT-116
HCT-15 = tested on: HCT-15
HL-60 = tested on: HL-60
HOP-62 = tested on: HOP-62
HT-29 = tested on: HT-29
Hs-578T = tested on: Hs-578T
K562 = tested on: K562
KM12 = tested on: KM12
LOX IMVI = tested on: LOX IMVI
M14 = tested on: M14
MCF7 = tested on: MCF7
MDA-MB-231 = tested on: MDA-MB-231
MDA-MB-435 = tested on: MDA-MB-435
MDA-N = tested on: MDA-N
MOLT-4 = tested on: MOLT-4
NCI-H226 = tested on: NCI-H226
NCI-H23 = tested on: NCI-H23
NCI-H460 = tested on: NCI-H460
NCI-H522 = tested on: NCI-H522
NCI/ADR-RES = tested on: NCI/ADR-RES
OVCAR-3 = tested on: OVCAR-3
OVCAR-4 = tested on: OVCAR-4
OVCAR-5 = tested on: OVCAR-5
OVCAR-8 = tested on: OVCAR-8
PC-3 = tested on: PC-3
RPMI-8226 = tested on: RPMI-8226
RXF 393 = tested on: RXF 393
SF-268 = tested on: SF-268
SF-295 = tested on: SF-295
SF-539 = tested on: SF-539
SK-MEL-28 = tested on: SK-MEL-28
SK-MEL-2 = tested on: SK-MEL-2
SK-MEL-5 = tested on: SK-MEL-5
SK-OV-3 = tested on: SK-OV-3
SN12C = tested on: SN12C
SNB-19 = tested on: SNB-19
SNB-75 = tested on: SNB-75
SR = tested on: SR
SW-620 = tested on: SW-620
T47D = tested on: T47D
TK-10 = tested on: TK-10
U-251 = tested on: U-251
UACC-257 = tested on: UACC-257
UACC-62 = tested on: UACC-62
UO-31 = tested on: UO-31

SMILES: COc1ccc(-n2c(CCC(=O)O)nc3c2C(=O)c2ccccc2C3=O)cc1
- GI50 (786-0): > 100 µM (inactive)
- GI50 (A498): > 100 µM (inactive)
- GI50 (A549): > 100 µM (inactive)
- GI50 (ACHN): > 100 µM (inactive)
- GI50 (BT-549): > 100 µM (inactive)
- GI50 (CAKI-1): > 100 µM (inactive)
- GI50 (CCRF-CEM): 88.9 µM (inactive)
- GI50 (COLO 205): > 100 µM (inactive)
- GI50 (DU-145): > 100 µM (inactive)
- GI50 (EKVX): > 100 µM (inactive)
- GI50 (HCC 2998): > 100 µM (inactive)
- GI50 (HCT-116): 80.2 µM (inactive)
- GI50 (HCT-15): > 100 µM
- GI50 (HL-60): > 100 µM (inactive)
- GI50 (HOP-62): > 100 µM (inactive)
- GI50 (HT-29): > 100 µM (inactive)
- GI50 (Hs-578T): > 100 µM (inactive)
- GI50 (K562): 71.3 µM (inactive)
- GI50 (KM12): > 100 µM (inactive)
- GI50 (LOX IMVI): 28.3 µM (inactive)
- GI50 (M14): > 100 µM (inactive)
- GI50 (MCF7): 84.5 µM (inactive)
- GI50 (MDA-MB-231): > 100 µM (inactive)
- GI50 (MDA-MB-435): 96.4 µM (inactive)
- GI50 (MDA-N): > 100 µM (inactive)
- GI50 (MOLT-4): > 100 µM (inactive)
- GI50 (NCI-H226): > 100 µM (inactive)
- GI50 (NCI-H23): > 100 µM (inactive)
- GI50 (NCI-H460): > 100 µM (inactive)
- GI50 (NCI-H522): 34.3 µM (inactive)
- GI50 (NCI/ADR-RES): > 100 µM (inactive)
- GI50 (OVCAR-3): 98.2 µM (inactive)
- GI50 (OVCAR-4): > 100 µM (inactive)
- GI50 (OVCAR-5): > 100 µM (inactive)
- GI50 (OVCAR-8): > 100 µM (inactive)
- GI50 (PC-3): > 100 µM (inactive)
- GI50 (RPMI-8226): > 100 µM (inactive)
- GI50 (RXF 393): > 100 µM (inactive)
- GI50 (SF-268): > 100 µM (inactive)
- GI50 (SF-295): > 100 µM (inactive)
- GI50 (SF-539): > 100 µM (inactive)
- GI50 (SK-MEL-28): > 100 µM (inactive)
- GI50 (SK-MEL-2): 88.1 µM (inactive)
- GI50 (SK-MEL-5): > 100 µM (inactive)
- GI50 (SK-OV-3): > 100 µM (inactive)
- GI50 (SN12C): > 100 µM (inactive)
- GI50 (SNB-19): > 100 µM (inactive)
- GI50 (SNB-75): > 100 µM (inactive)
- GI50 (SR): > 100 µM (inactive)
- GI50 (SW-620): > 100 µM (inactive)
- GI50 (T47D): 33 µM (inactive)
- GI50 (TK-10): > 100 µM (inactive)
- GI50 (U-251): > 100 µM (inactive)
- GI50 (UACC-257): > 100 µM (inactive)
- GI50 (UACC-62): > 100 µM (inactive)
- GI50 (UO-31): > 100 µM (inactive)

Reference: ChEMBL document CHEMBL1201862, “PubChem BioAssay data set” (2004)
